≈ marks a conversion by molar mass, not a printed value. Read-outs that look alike come from different tables or passages of the source.
What was measured:
SmBRD3(2) = SmBRD3(2) (Schistosoma mansoni, UniProt A0A5K4ESD7); experiment: biochemical; format: binding; details: for N number, binding to SmBRD3(2), Repeat 1 / N number, binding to SmBRD3(2), Repeat 2 / N number, binding to SmBRD3(2), Repeat 3 / N number, binding to SmBRD3(2), Mean: ITC stoichiometry; for N number, binding to SmBRD3(2), Mean: mean of repeats
Sequence of SmBRD3(2) (A0A5K4ESD7 entry or part of it): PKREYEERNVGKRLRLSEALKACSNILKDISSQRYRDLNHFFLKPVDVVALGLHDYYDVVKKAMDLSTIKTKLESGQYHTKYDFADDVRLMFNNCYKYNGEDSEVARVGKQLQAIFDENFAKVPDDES

HsBRD4(1) = biological target: T1, HsBRD4(1) (Homo sapiens, UniProt O60885); experiment: Isothermal titration calorimetry (ITC), HsBRD4(1); format: binding; details: single value ± error of the curve fit
T1 construct: HsBRD4(1) Kd (ITC, nM); made in house; host or cells: E. coli BL21(DE3)

CAD solubility assay = format: physicochemical; details: phosphate buffered saline, pH 7.4, phosphate buffered saline at pH 7.4; read-out: Aqueous Solubility by CAD
Method: A CAD solubility assay was carried out by Physchem Team, Discovery Analytical, NCE Molecular Discovery at GSK. 5 μL of 10 mM DMSO stock solution was diluted to 100 μL with pH 7.4 phosphate buffered saline, equilibrated for 1 h at room temperature, and filtered through Millipore MultiscreenHTS-PCF filter plates (MSSL BPC). The filtrate was quantified using a suitably calibrated charged aerosol detector.[45]

chromLogD assay = format: physicochemical; details: reversed phase HPLC column (Gemini NX C18), pH 7.4
Method: Lipophilicity: a chromLogD assay was carried out by the Physchem Team, Discovery Analytical, NCE Molecular Discovery at GSK. The chromatographic hydrophobicity index (CHI)[46],[47] values were measured using reversed phase HPLC column (50 × 2 mm […] Gemini NX C18, Phenomenex, UK) with fast acetonitrile gradient at starting mobile phase of pHs 2, 7.4, or 10.5. CHI values were derived directly from the gradient retention times using calibration parameters for standard compounds. The CHI value approximates to the volume % organic concentration when the compound elutes. CHI was linearly transformed into a chromLogD[48] value by least-squares fitting of experimental CHI values to calculated cLogP values for over 20000 research compounds.

adult male S. mansoni = experiment: Determination of compound parasite permeability (LCMS of worm lysate); format: in vitro ADME, Schistosoma mansoni; details: worms treated with 20 μM of the same compound for 24 h; LCMS
S. mansoni schistosomula = experiment: Ex vivo schistosomula screening (Roboworm high content imaging); set-up: species or system Schistosoma mansoni; details: 20 μM (Figure 7) or 10 μM (Figure S48); 72 h
Method: A high-throughput imaging platform that quantifies both phenotype and motility ex vivo, was used to screen compounds against schistosomula; their effects were assessed as previously described.[20] Briefly, the schistosomula stage of S. mansoni was obtained by mechanical transformation of cercariae, dispensed into 384-well tissue culture plates, and dosed with 20 μM (Figure 7) or 10 μM (Figure S48) of each compound. Following 72 h coincubation of the schistosomula and compound, the plate was subjected to high content imaging to quantify the effects of each compound.
S. mansoni schistosomula were obtained by mechanical transformation from cercariae as previously described,[64] distributed in 384-well tissue culture plates (PerkinElmer, catalogue number 6007460) at 120 parasites/well and dosed with the selected compounds as previously reported.[65]−[68] For this study, each compound (as 10 mM DMSO stock solution) was initially tested at two concentration points (20 and 10 μM final concentration, in duplicates) in at least four independent screens (Z′ scores above 0.35).[69] Each screen contained both positive (10 μM auranofin (AUR) in 0.625% DMSO) and negative (0.625% DMSO) controls. […] Following 72 h schistosomula/compound coincubation, the plate was analyzed by the Roboworm platform.[70] EC50 values were calculated from the titrated concentrations by nonlinear regression, after log transformation of concentrations and data normalization using GraphPad Prism 7.02.

S. mansoni adult worms = experiment: Ex vivo adult worm screening (motility, IVLEs, pairing); set-up: species or system Schistosoma mansoni; details: 72 h
Method: S. mansoni adult worms were recovered by hepatic portal vein perfusion from TO mice (Mus musculus HsdOLa:TO - Tuck Ordinary; Envigo, UK) that were percutaneously infected 7 weeks earlier with 180 cercariae.[65],[71] Following perfusion, schistosomes were washed and processed as previously described.[65],[66] Subsequently, schistosome pairs were seeded into 48 well tissue culture plates (1 worm pair/well, in duplicate) and dosed with the compounds (20 μM in 0.2% DMSO). DMSO (0.2%) and praziquantel (10 μM in 0.1% DMSO) were also included as negative and positive controls, respectively. Parasite motility was assessed by a digital image processing-based system (WormassayGP2),[66] modified after Wormassay.[72]In vitro laid eggs (IVLEs) were enumerated and the presence or absence of paired worms was noted.

S. mansoni miracidia = experiment: Ex vivo miracidia to sporocyst transformation screening; set-up: species or system Schistosoma mansoni; details: 0.5-25 μM in 1% DMSO; 48 h
Method: S. mansoni miracidia were obtained by hatching of schistosome eggs as previously described.[73] The resulting miracidial suspension was collected, washed with Chernin’s balanced salt solution (CBSS),[73] and enumerated prior to being used for ex vivo miracidia to sporocyst screens as previously reported.[66],[73] Each compound was tested at 0.5, 2.0, 5.0, 10, and 25 μM final concentrations (in 1% DMSO). Each treatment was set up in duplicate (15–25 miracidia/well). Each titration was performed in three independent experiments (two technical replicates per data point). Parasites cultured in CBSS (containing 1% DMSO) were included as negative controls. After 48 h incubation at 26 °C in the dark, dead, fully transformed and partially transformed miracidia were enumerated as previously described.[74],[75]

[1] = ITC, read-out: SmBRD3(2) pKd (converted)
[2] = ITC, single run ± error of curve fit, Repeat 2, read-out: SmBRD3(2) Kd, Repeat 2
[3] = ITC, single run ± error of curve fit, Repeat 3, read-out: SmBRD3(2) Kd, Repeat 3

N number, binding to SmBRD3(2), Repeat 1 (SmBRD3(2); Repeat 1)	N number, binding to SmBRD3(2), Repeat 2 (SmBRD3(2); Repeat 2)	N number, binding to SmBRD3(2), Repeat 3 (SmBRD3(2); Repeat 3)	N number, binding to SmBRD3(2), Mean (SmBRD3(2))	Kd (SmBRD3(2); [1])	Kd (SmBRD3(2); [2])	Kd (SmBRD3(2); [3])	Kd (SmBRD3(2); read-out: SmBRD3(2) Kd)	HsBRD4(1) Kd (ITC) (HsBRD4(1))	Kd (HsBRD4(1))	solubility at 1 h (CAD solubility assay)	chromatographic logD (chromLogD assay)	Structure (SMILES)	also measured
1.52 ± 2.2e-2	1.57 ± 3.4e-2	1.64 ± 3.3e-2	1.58	0.631 µM	0.778 ± 0.179 µM	0.753 ± 0.176 µM	0.701 ± 0.0649 µM	high affinity	0.0644 ± 0.0207 µM	≥ 259 µM	2.83	CC(=O)N1c2ccc(-c3ccc(C(=O)O)cc3)cc2[C@H](Nc2ccc3ccsc3c2)C[C@@H]1C [Compound 9, 4-{(2S,4R)-1-Acetyl-4-[(1-benzothiophen-6-yl)amino]-2-methyl-1,2,3,4-tetrahydroquinolin-6-yl}benzoic Acid]	Kd (SmBRD3(2); ITC, single run ± error of curve fit, Repeat 1, read-out: SmBRD3(2) Kd, Repeat 1): 0.572 ± 0.103 µM
1.48 ± 2.5e-2	1.51 ± 2.0e-2	1.69 ± 1.8e-2	1.56	0.398 µM	0.361 ± 0.0702 µM	0.411 ± 0.0604 µM	0.364 ± 0.0263 µM	high affinity	0.0135 ± 0.00247 µM	–	–	CC(=O)N1c2ccc(-c3ccc(C(=O)O)cc3)cc2[C@H](Nc2ccc3ncccc3c2)C[C@@H]1C [Compound 15, 4-{(2S,4R)-1-Acetyl-2-methyl-4-[(quinolin-6-yl)amino]-1,2,3,4-tetrahydroquinolin-6-yl}benzoic Acid]	Kd (SmBRD3(2); read-out: SmBRD3(2) Kd, Repeat 1): 0.32 ± 0.0828 µM; Quantity of compound found in lysed adult worms (adult male S. mansoni): lower quantities
–	–	–	–	–	–	–	–	–	–	1 µM (≈ 0.485 µg/mL)	7.61	CCOC(=O)c1ccc(-c2ccc3c(c2)[C@@H](Nc2ccc4ccsc4c2)C[C@@H](C)N3C(C)=O)cc1 [Compound 17, Ethyl 4-{(2R,4S)-1-Acetyl-4-[(1-benzothiophen-6-yl)amino]-2-methyl-1,2,3,4-tetrahydroquinolin-6-yl}benzoate]	SmBRD3(2) Kd (SmBRD3(2)): No binding; SmBRD3(2) Kd, Repeat 1 (SmBRD3(2)): No binding; Effect on schistosomula motility (S. mansoni schistosomula): did not have substantial effects; Effect on schistosomula phenotype (S. mansoni schistosomula): did not have substantial effects; Effect on adult worm movement (S. mansoni adult worms; 20 μM in 0.2% DMSO): some modest effects; Effect on egg count (in vitro laid eggs) (S. mansoni adult worms; 20 μM): some modest effects; Toxicity to miracidia (dead parasites) (S. mansoni miracidia): toxic at the higher concentrations
